According to PMC10485887, “PET Evaluation of the Novel F-18 Labeled Reversible Radioligand [^18F]GEH200449 for Detection of Monoamine Oxidase-B in the Non-Human Primate Brain” (ACS Chemical Neuroscience, 2023):
Several values for one entry are separate records, joined by “and”; a condition that tells them apart may be missing. Equal entries are not always repeated. Where two headings read alike, the source gives them in different places.

Tests used:
MAO-B [1] = type: in vivo, Macaca fascicularis
Protocol: Each PET measurement was performed on a separate experimental day. Experiments conducted in the same NHP were separated by at least 6 weeks. Baseline PET measurements were initially undertaken in each of the five NHPs.
Time curves for regional [^18F]GEH200449 binding at baseline were analyzed by kinetic modeling using 1-TC and 2-TC models,[32] and VT as outcome measures. Akaike information criterion[33] and F statistics were applied to select the preferred model. Regional estimates of VT for [^18F]GEH200449 were also obtained using the Logan linear graphical method[34] with t* fixed at 40 min. The analyses were performed using the kinetic modeling tool in PMOD v. 4.3. Occupancy at [^18F]GEH200449 binding sites was estimated based on regional VT values obtained by the Logan method at baseline and after drug administration according to a graphical procedure described in the literature.[22]

MAO-B [2] = system: MAO-B; set-up: method as in PMID 31589885; conditions: cited from earlier work

Row | Structure (SMILES) | effect on [^18F]GEH200449 regional radioactivity (MAO-B [1]; 0.15 mg/kg, 15 min before PET, NHP #3) | affinity toward MAO-B (MAO-B [2]) | effect on [^18F]GEH200449 regional radioactivity (MAO-B [1]; 1.0 mg/kg, 15 min before PET, NHP #5) | occupancy at MAO-B ([^18F]GEH200449 binding sites) (MAO-B [1]; 0.75 mg/kg IV, 45 min before radioligand, NHP #4, graphical analysis of VT) | inhibitory effect on [^18F]GEH200449 binding, dose dependency (MAO-B [1]; 0.25 and 0.75 mg/kg pretreatment, NHP #4) | effect on [^18F]GEH200449 regional radioactivity (MAO-B [1]; pretreatment 45 min before radioligand injection)
1 | N#Cc1cc(F)cc(-c2nc(-c3ccc(F)cn3)no2)c1 [AZD9272] | reduction | high affinity | – | – | – | –
2 | CN1CC(=O)NC1=NC(=O)Nc1cccc(Cl)c1 [fenobam] | – | high affinity | reduction | – | – | –
3 | C#CCN[C@@H]1CCc2ccccc21 [rasagiline, N-Propargyl-1R(+)-Aminoindan] | – | – | – | 97% and > 80% | more pronounced after the higher dose | inhibited
